According to patent US5013743A, “Selective antibacterial agent against campytobacter” (Takeda Chemical Industries, Ltd., priority 1989, dated 1991):

Columns and labels:
[1] = tested on: S. aureus P 114; assay: MIC, standard agar-plate dilution method, aerobic common bacteria; assay type: cell-based; conditions: Staphylococcus aureus, P114
Text: (§1) Antibacterial activities of some compounds of the present invention against aerobic common bacteria were examined.

[2] = tested on: S. marcecens IFO 12648; assay: as above; assay type: cell-based
Text: as §1

[3] = tested on: S. aureus FDA 209P; assay: as above; assay type: cell-based; conditions: Staphylococcus aureus, FDA209P
Text: as §1

[4] = tested on: P. aeruginosa P 9; assay: as above; assay type: cell-based; conditions: Pseudomonas aeruginosa, P9
Text: as §1

[5] = tested on: P. aeruginosa IFO 3455; assay: as above; assay type: cell-based; conditions: Pseudomonas aeruginosa, IFO3455
Text: as §1

[6] = tested on: S. aureus 1840; assay: as above; assay type: cell-based; conditions: Staphylococcus aureus
Text: as §1

[7] = tested on: S. aureus C 260; assay: as above; assay type: cell-based; conditions: Staphylococcus aureus, C260
Text: as §1

[8] = tested on: C. freundii TN 474; assay: as above; assay type: cell-based; conditions: Citrobacter freundii, TN474
Text: as §1

[9] = tested on: P. aeruginosa U 31; assay: as above; assay type: cell-based; conditions: Pseudomonas aeruginosa, U31
Text: as §1

[10] = tested on: S. pyogenes S-8; assay: as above; assay type: cell-based; conditions: Streptococcus pyogenes, S8
Text: as §1

[11] = tested on: P. aeruginosa GN 3407; assay: as above; assay type: cell-based; conditions: Pseudomonas aeruginosa, GN3407
Text: as §1

[12] = tested on: C. diphtheriae Tront; assay: as above; assay type: cell-based; conditions: Corynebacterium diphtheriae
Text: as §1

[13] = tested on: C. pylori NCTC 11916; assay: MIC, agar-plate dilution method, test strain A; assay type: cell-based; conditions: Helicobacter pylori, NCTC11916, 72 h, Brucella agar, 37° C., 3 days
Protocol: (§2) The minimum inhibitory concentration (MIC) of each compound was determined by the agar-plate dilution method based on the standard method advocated by Japan Society of Chemotherapy [cf: Chemotherapy, Jan. '81, p. 76]. The volume of agar medium per plate was 20 ml. Each of the test compounds was dissolved in dimethylsulfoxide at a concentration of 80 mg/ml or 40 mg/ml, and diluted 10 times with sterile distilled water. Furthermore, the aqueous solution of 8 mg/ml or 4 mg/ml was diluted serially 2-fold with sterile distilled water. To 2 ml of the diluted solution was added 18 ml of Brucella agar (BBL Microbiology Systems, Becton Dickinson and Co., Cockeysville, Md. 21030) containing 7% defibrinated horse blood (manufactured by Nippon Bio-supp. Center) and mixed well. Test strains frozen at -80° C. in Brucella broth (BBL) containing 10% horse serum were thawed and inoculated on a Brucella agar slant medium containing 7% defibrinated horse blood. The medium was incubated anaerobically at 37° C. for 3 days in a jar containing a piece of sponge sufficiently impregnated with water and Campy Pak™ (BBL). The organisms grown on the slant medium were collected and suspended in a Brucella broth to correspond to the turbidity of about 10^8 CFU/ml of common bacteria. One platinum loop of inoculum was streaked on the medium plates for determination. The plates were incubated under the same conditions as described above.

[14] = tested on: C. pylori CLO 1; assay: MIC, agar-plate dilution method, test strain F; assay type: cell-based; conditions: Helicobacter pylori, CLO1, 72 h, Brucella agar, 37° C., 3 days
Protocol: as §2

[15] = Stability of the lyophilized compound (1) after being dissolved in vials, storage for 24 hours; assay type: physicochemical
Protocol: (§3) The resulting filtrate was filled in 1 ml portions into vials of a 12 cm^3 capacity, followed by lyophilization by means of the conventional technique.
(§4) *As measured by use of highperformance liquid chromatography (HPLC),
(§5) whereby the content determined immediately after preparation was taken as
(§6) Chromatographic conditions of HPLC:
(§7) Nucleosil 5 C18 (supplied by GasChro Kogyo K.K. of Japan) 4.0 mm
(§8) Methanol:water:triethylamine (60:40:1, pH 7)
(§9) UV spectrophotometry at 285 mm

[16] = tested on: genus Campylobacter; assay: Antibacterial activity against the genus Campylobacter (Tables 2 and 3, summary in words); assay type: cell-based, Campylobacter pylori; conditions: fluorinated alkyl derivatives vs other derivatives, Table 2 and Table 3
Protocol: as §2

[17] = Inspection of lyophilized compound (1) for solubility, appearance and content immediately after dissolution; assay type: physicochemical; conditions: for Appearance / Clarity / Content: after dissolution; for Content: taken as 100.0% (HPLC)
Protocol: as §3, §4, §5, §6, §7, §8, §9

[18] = assay type: in vivo; conditions: oral, mice, 200 mg/kg

COc1ccc2[nH]c([S+]([O-])Cc3ncc(C)c(OC)c3C)nc2c1 (stereo not drawn) [Compound 2]
25 µg/mL: MIC [13] | MIC [14]
> 400 µg/mL: MIC [1] | MIC [2] | MIC [3] | MIC [4] | MIC [5] | MIC [6] | MIC [7] | MIC [8] | MIC [9] | MIC [10] | MIC [11] | MIC [12]

Cc1c(OCC(F)(F)F)ccnc1C[S+]([O-])c1nc2ccccc2[nH]1 (stereo not drawn) [Compound 1]
dissolved quickly: dissolution speed ([17]; Solvents A to D)
100%: Content ([17]; Solvent A) | Content ([17]; Solvent B) | Content ([17]; Solvent C) | Content ([17]; Solvent D)
12.5 µg/mL: MIC [13]
stronger antibacterial activity: antibacterial activity compared with other derivatives [16]
> 400 µg/mL: MIC [1] | MIC [2] | MIC [3] | MIC [4] | MIC [5] | MIC [6] | MIC [7] | MIC [8] | MIC [9] | MIC [10] | MIC [11] | MIC [12]
Clear: Clarity ([15]; after storage at 5° C. for 24 hrs., Solvent A) | Clarity ([15]; after storage at 5° C. for 24 hrs., Solvent B) | Clarity ([15]; after storage at 5° C. for 24 hrs., Solvent C) | Clarity ([15]; after storage at 5° C. for 24 hrs., Solvent D) | Clarity ([17]; Solvent A) | Clarity ([17]; Solvent B) | Clarity ([17]; Solvent C) | Clarity ([17]; Solvent D)
decrease slightly: change in content of compound (1) ([15]; Solvents A to D, 24 hours)
9.0: pH after dissolution ([17]; Solvent B) | pH after dissolution ([17]; Solvent C) | pH after dissolution ([17]; Solvent D)
excellent solubilities: solubilities of the lyophilized powder in all of these solvents ([17]; Solvents A to D)
6.25 µg/mL: MIC [14]
Good: Solubility ([17]; Solvent A (N-methylglucamine, HCl, propylene glycol, ethanol)) | Solubility ([17]; Solvent B (N-methylglucamine, HCl, polyethylene glycol 400, ethanol, water)) | Solubility ([17]; Solvent C (N-methylglucamine, HCl, ethanol, propylene glycol, water)) | Solubility ([17]; Solvent D (N-methylglucamine, HCl, polyethylene glycol 400, water))
Slightly to lightly green-yellow: Appearance ([15]; after storage at 5° C. for 24 hrs., Solvents A to D)
8.7: pH after dissolution ([17]; Solvent A)
no change in the stage of solution: change in the stage of solution ([15]; Solvents A to D, 24 hours)
Colorless: Appearance ([17]; Solvent A) | Appearance ([17]; Solvent B) | Appearance ([17]; Solvent C) | Appearance ([17]; Solvent D)
slight changes in appearance: changes in appearance ([15]; immediately after dissolution and after storage for 24 hours)

Cc1c(OCC(F)(F)F)ccnc1CSc1nc2ccccc2[nH]1 [Compound 6]
> 400 µg/mL: MIC [1] | MIC [2] | MIC [3] | MIC [4] | MIC [5] | MIC [6] | MIC [7] | MIC [8] | MIC [9] | MIC [10] | MIC [11] | MIC [12]
6.25 µg/mL: MIC [13]
no dead animals: dead animals [18]
stronger antibacterial activity: antibacterial activity compared with other derivatives [16]
25 µg/mL: MIC [14]
